Measurements from US9062043B2, “Fused tricyclic compounds as serine-threonine protein kinase and PARP modulators” (SENHWA BIOSCIENCES, INC., priority 2006, dated 2015).

Tests used:
MiaPaca xenografts = test: Tumor suppression in MiaPaca xenograft mice; type: in vivo; conditions: MiaPaca xenografts, IV administration
[1] = system: PC-3 human prostatic cancer cells; test: Cell proliferation assay, Alamar Blue, PC-3; type: cell-based; conditions: Table 16, read-out: IC50 PC3
Method: (§1) A representative cell-proliferation assay protocol using Alamar Blue dye (stored at 4° C., use 20 ul per well) is described hereafter.
(§2) c. Plate 4,000-5,000 cells per well in 100 μl of medium and seed into a 96-well plate according to the following plate layout. Add cell culture medium only to wells B10 to B12. Wells B1 to B9 have cells but no compound added.
(§3) d. Add 100 μl of 2× drug dilution to each well in a concentration shown in the plate layout above. At the same time, add 100 μl of media into the control wells (wells B10 to B12). Total volume is 200 μl/well.
(§4) e. Incubate four (4) days at 37° C., 5% CO2 in a humidified incubator.
(§5) f. Add 20 μl Alamar Blue reagent to each well.
(§6) g. Incubate for four (4) hours at 37° C., 5% CO2 in a humidified incubator.
(§7) h. Record fluorescence at an excitation wavelength of 544 nm and emission wavelength of 590 nm using a microplate reader.
(§8) In the assays, cells are cultured with a test compound for approximately four days, the dye then is added to the cells and fluorescence of […] dye is detected after approximately four hours. Different types of cells can be utilized in the assays (e.g., HCT-116 human colorectal carcinoma cells, PC-3 human prostatic cancer cells and MiaPaca human pancreatic carcinoma cells). Anti-proliferative effects of representative compounds are provided hereafter.

HT29 = test: Cell proliferation assay, Alamar Blue, HT29; type: cell-based; conditions: Homo sapiens, HT-29
Method: as §2, §3, §4, §5, §6, §7, §8

Jurkat = test: Cell proliferation assay, Alamar Blue, Jurkat; type: cell-based; conditions: Homo sapiens, Table 16;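 also: cells exposed to compound for about 4 days at 37 °C, then Alamar Blue added and fluorescence read after about 4 h, controls given medium without drug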
A549 = test: Cell proliferation assay, Alamar Blue, A549; type: cell-based; conditions: Homo sapiens, Table 16
Method: as §2, §3, §4, §5, §6, §7, §8

[2] = system: MiaPaca human pancreatic carcinoma cells; test: Cell proliferation assay, Alamar Blue, MiaPaca; type: cell-based; conditions: MIA PaCa-2, Table 16
Method: as §1, §2, §3, §4, §5, §6, §7, §8

H1299 = test: Cell proliferation assay, Alamar Blue, H1299; type: cell-based; conditions: Homo sapiens, NCI-H1299; Table 16
Method: as §2, §3, §4, §5, §6, §7, §8

Hs578T = test: Cell proliferation assay, Alamar Blue, Hs578T; type: cell-based; conditions: Homo sapiens, Hs-578T; Table 16
[3] = system: HCT-116 human colorectal carcinoma cells; test: Cell proliferation assay, Alamar Blue, HCT-116; type: cell-based; conditions: HCT-116, Table 16, second HCT-116 column;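 also: cells exposed to compound for about 4 days, then Alamar Blue added and fluorescence read after about 4 h, medium-only wells as control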
BxPC3 = test: Cell proliferation assay, Alamar Blue, BxPC3; type: cell-based; conditions: Homo sapiens, BXPC-3
Method: as §2, §3, §4, §5, §6, §7, §8

PanC1 = test: Cell proliferation assay, Alamar Blue, PanC1; type: cell-based; conditions: Homo sapiens, PANC-1; Table 19b; read-out: IC50 PanC1
Method: as §1, §2, §3, §4, §5, §6, §7, §8

`O=C(O)c1ccc2c(c1)nc(Nc1cccc(C(F)(F)F)c1)c1nc(NC3CC3)ncc12` [compound A3] was tested. Which Tumor progression inhibition (MiaPaca xenografts) did it give?
Its Tumor progression inhibition is “significantly inhibited tumor progression”.

With `CNC(=O)c1cccc(Nc2nc3cc(C(=O)O)ccc3c3sccc23)c1` as the molecule, how does the IC50 [1] read?
The IC50 was 26.7 µM.

And the IC50 (HT29; Table 16)?
The IC50 was 3.56 µM.

And the IC50 (Jurkat)?
The IC50 was 8.69 µM.

And the IC50 (A549)?
The IC50 was 6.94 µM.

And the IC50 [2]?
Its IC50 is > 10 µM.

And the IC50 (H1299)?
Its IC50 is 13.8 µM.

And the IC50 (Hs578T)?
Its IC50 is 9.07 µM.

What about the IC50 [3] of the same molecule?
The IC50 was > 10 µM.

How did the IC50 [1] turn out when `COc1cccc(Nc2nc3cc(C(=O)O)ccc3c3scnc23)c1` was run?
The IC50 was > 50 µM.

What about the IC50 (HT29; Table 16) of the same molecule?
The IC50 was > 50 µM.

And the IC50 (A549)?
The IC50 was > 50 µM.

And the IC50 [2]?
Its IC50 is > 10 µM.

What about the IC50 (H1299) of the same molecule?
The IC50 was 18.5 µM.

What about the IC50 (Hs578T) of the same molecule?
The IC50 was > 50 µM.

And the IC50 [3]?
The IC50 was > 10 µM.

For `N#Cc1cccc(Nc2nc3cc(C(=O)O)ccc3c3sccc23)c1`, which IC50 [1] is on record?
Its IC50 is > 50 µM.

What about the IC50 (HT29; Table 16) of the same molecule?
The IC50 was 16.6 µM.

What about the IC50 (A549) of the same molecule?
Its IC50 is 16 µM.

What about the IC50 [2] of the same molecule?
Its IC50 is > 10 µM.

And the IC50 (H1299)?
Its IC50 is 19.1 µM.

And the IC50 (Hs578T)?
Its IC50 is 12.3 µM.

What does the source list for `O=C(O)c1ccc2c(c1)nc(Nc1cc(F)cc(F)c1)c1ccsc12`?
IC50 [1]: 6.11 µM; IC50 (HT29; Table 16): 2 µM; IC50 (Jurkat): 5.86 µM; IC50 (A549): 7.45 µM; IC50 [2]: 6.36 µM; IC50 (H1299): 8.14 µM; IC50 (Hs578T): 7.31 µM; IC50 [3]: > 10 µM

With `O=C(O)c1ccc2c(c1)nc(NCCCc1ccccc1)c1ccncc12` [drawing 1221] as the molecule, how does the IC50 (HT29; Table 19b) read?
The IC50 was 16.4 µM.

And the IC50 (BxPC3; Table 19b)?
The IC50 was 23.4 µM.

What about the IC50 (PanC1) of the same molecule?
The IC50 was 34.4 µM.

For `O=C(O)c1ccc2c(c1)nc(NCCc1cccc(F)c1)c1ccncc12` [drawing 1220], which IC50 (HT29; Table 19b) is on record?
Its IC50 is 31.3 µM.

And the IC50 (BxPC3; Table 19b)?
Its IC50 is 3.29 µM.

What about the IC50 (PanC1) of the same molecule?
The IC50 was 28.2 µM.

Which IC50 [1] does the source give for `O=C(O)c1ccc2c(c1)nc(Nc1cccc(F)c1)c1ccsc12` here?
Its IC50 is 2.66 µM.

What about the IC50 (HT29; Table 16) of the same molecule?
The IC50 was 1.89 µM.

And the IC50 (Jurkat)?
The IC50 was 5.93 µM.

What about the IC50 (A549) of the same molecule?
The IC50 was 6.23 µM.

And the IC50 [2]?
Its IC50 is 7.28 µM.

What about the IC50 (H1299) of the same molecule?
Its IC50 is 8.78 µM.

What about the IC50 (Hs578T) of the same molecule?
Its IC50 is 8.67 µM.

And the IC50 [3]?
Its IC50 is > 10 µM.

How did the IC50 [1] turn out when `O=C(O)c1ccc2c(c1)nc(Nc1cc(Cl)cc(Cl)c1)c1ccsc12` [drawing 984] was run?
The IC50 was 32.2 µM.

And the IC50 (HT29; Table 16)?
Its IC50 is 13 µM.

And the IC50 (Jurkat)?
Its IC50 is 4.31 µM.

And the IC50 (BxPC3; Table 16)?
Its IC50 is 2.1 µM.

And the IC50 (A549)?
Its IC50 is 13.2 µM.

And the IC50 [2]?
The IC50 was 14.6 µM.

What about the IC50 (H1299) of the same molecule?
The IC50 was 0.97 µM.

What about the IC50 (Hs578T) of the same molecule?
Its IC50 is 7.67 µM.

What about the IC50 [3] of the same molecule?
The IC50 was 8.76 µM.

What does the source list for `C#Cc1cccc(Nc2nc3cc(C(=O)O)ccc3c3sccc23)c1` [drawing 938]?
IC50 [1]: 17.8 µM; IC50 (HT29; Table 16): 23.1 µM; IC50 (A549): 27.7 µM; IC50 [2]: > 10 µM; IC50 (H1299): 16.9 µM; IC50 (Hs578T): 9.96 µM
